Key:
[1] = target: Sodium channel protein type 9 subunit alpha (Homo sapiens, UniProt Q15858); assay: Inhibition of human Nav1.7 expressed in HEK293 cells by electrophysiology assay; assay type: cell-based
[2] = organism: Homo sapiens; assay: Selectivity ratio of IC50 for human Nav1.5 to IC50 for human Nav1.7

Sequence of Sodium channel protein type 9 subunit alpha (Q15858 whole entry): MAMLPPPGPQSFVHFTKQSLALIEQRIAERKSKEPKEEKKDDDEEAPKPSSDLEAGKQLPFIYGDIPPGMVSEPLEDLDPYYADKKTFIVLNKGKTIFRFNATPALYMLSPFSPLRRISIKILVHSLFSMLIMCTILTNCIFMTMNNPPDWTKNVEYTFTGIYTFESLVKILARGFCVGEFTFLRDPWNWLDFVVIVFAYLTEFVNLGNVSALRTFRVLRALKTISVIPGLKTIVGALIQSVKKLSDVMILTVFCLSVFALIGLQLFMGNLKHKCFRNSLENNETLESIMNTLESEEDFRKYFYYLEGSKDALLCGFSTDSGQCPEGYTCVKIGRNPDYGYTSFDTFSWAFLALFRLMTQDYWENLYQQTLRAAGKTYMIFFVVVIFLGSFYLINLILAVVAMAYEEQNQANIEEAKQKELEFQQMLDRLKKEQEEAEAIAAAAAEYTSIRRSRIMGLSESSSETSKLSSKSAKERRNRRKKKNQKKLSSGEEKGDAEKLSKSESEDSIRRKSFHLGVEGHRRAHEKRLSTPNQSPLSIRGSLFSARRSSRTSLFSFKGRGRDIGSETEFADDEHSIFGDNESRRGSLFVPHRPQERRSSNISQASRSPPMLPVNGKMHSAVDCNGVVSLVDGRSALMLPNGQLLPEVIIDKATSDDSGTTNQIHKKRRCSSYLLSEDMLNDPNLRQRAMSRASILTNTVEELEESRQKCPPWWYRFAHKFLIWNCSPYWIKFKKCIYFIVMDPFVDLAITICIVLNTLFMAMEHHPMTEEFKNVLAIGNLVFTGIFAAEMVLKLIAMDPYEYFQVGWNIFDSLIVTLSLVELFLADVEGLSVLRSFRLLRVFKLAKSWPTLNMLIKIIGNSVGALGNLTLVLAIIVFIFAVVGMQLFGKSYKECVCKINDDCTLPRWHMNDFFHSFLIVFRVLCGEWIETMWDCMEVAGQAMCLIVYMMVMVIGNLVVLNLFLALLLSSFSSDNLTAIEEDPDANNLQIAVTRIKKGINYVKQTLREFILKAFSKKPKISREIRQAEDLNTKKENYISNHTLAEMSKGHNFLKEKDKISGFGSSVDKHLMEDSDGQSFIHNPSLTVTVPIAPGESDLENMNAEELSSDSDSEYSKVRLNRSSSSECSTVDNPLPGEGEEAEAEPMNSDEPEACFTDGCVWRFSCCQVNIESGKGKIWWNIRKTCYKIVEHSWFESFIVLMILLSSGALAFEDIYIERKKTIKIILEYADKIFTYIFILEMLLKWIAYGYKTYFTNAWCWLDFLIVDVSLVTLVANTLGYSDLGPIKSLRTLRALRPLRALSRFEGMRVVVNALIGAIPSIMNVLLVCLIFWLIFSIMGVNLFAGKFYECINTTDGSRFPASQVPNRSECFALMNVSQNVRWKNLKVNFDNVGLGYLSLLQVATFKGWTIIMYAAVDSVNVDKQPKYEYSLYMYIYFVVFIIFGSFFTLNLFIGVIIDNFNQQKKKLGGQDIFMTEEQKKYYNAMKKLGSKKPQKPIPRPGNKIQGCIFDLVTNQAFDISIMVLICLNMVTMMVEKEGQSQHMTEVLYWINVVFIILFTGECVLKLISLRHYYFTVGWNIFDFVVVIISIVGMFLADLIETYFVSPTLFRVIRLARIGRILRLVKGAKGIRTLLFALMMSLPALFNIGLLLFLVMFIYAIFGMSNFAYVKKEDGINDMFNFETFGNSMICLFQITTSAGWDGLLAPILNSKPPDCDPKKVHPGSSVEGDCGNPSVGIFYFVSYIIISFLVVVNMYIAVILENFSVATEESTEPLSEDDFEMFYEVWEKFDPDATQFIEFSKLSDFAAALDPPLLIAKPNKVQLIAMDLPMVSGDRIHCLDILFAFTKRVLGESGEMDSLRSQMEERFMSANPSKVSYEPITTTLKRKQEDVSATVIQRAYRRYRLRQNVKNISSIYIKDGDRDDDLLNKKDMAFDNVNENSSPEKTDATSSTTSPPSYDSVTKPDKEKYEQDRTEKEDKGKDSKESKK

SMILES	IC50 [1] [µM]	Ratio IC50 [2]
Cc1nn(-c2cnc(OCC(C)C)c(Cl)c2)c2ccc(C(=O)NS(C)(=O)=O)cc12 [PF-05241328]	0.031	
CN[C@H](CNc1cc(F)c(S(=O)(=O)Nc2nccs2)cc1Cl)Cc1cccc(Cl)c1	0.015	> 1380
O=C(O)[C@@H]1C[C@@H](F)CN1C(=O)c1cc(C2CC2)c(OCC2CCN(Cc3c(Cl)cccc3Cl)CC2)cc1F		> 150
